Data taken from patent publication US20060189581A1, “Compounds and methods for treating transplant rejection” (AtheroGenics, Inc., priority 1997, published 2006).
“Also recorded” adds a separate entry of the source. Where two headings read alike, the source gives them in different places.

What was measured:
[1] = tested on: ACI rat aorta transplanted into Lewis rat (graft arteriosclerosis); assay: Rat aortic allograft model (graft arteriosclerosis); assay type: in vivo
Procedure: Compound A was evaluated for graft arteriosclerosis resulting from aortic heterotropic transplantation. This is a model of graft arteriopathy which is the major obstacle to long term success of solid organ transplantation.
Donor descending aortas from ACI rats were heterotypically transplanted into Lewis rat abdomens in end-to-end fashion with minimal ischemic time. 55 rats were assigned to five groups as follows:
(§1) Compound A was administered subcutaneously to recipient animals three days prior to the surgery and once daily for 90 days thereafter. […] Thereafter, the dose was reduced to 30 mg/kg/d for 6 days and then further reduced to 5 mg/kg/d for the remainder of the study.
(§2) On day 90, the allograft segment was removed, fixed in 10% buffered formalin and paraffin embedded. Sections were stained with von Geisson's elastic stain, and intima-to-media area (IM) ratio and percent luminal narrowing (% LN) were assessed by digital morphometry (See FIGS. 1 and 2). Blood was collected at regular intervals throughout the study and plasma evaluated for compound levels (See FIG. 3).

[2] = Plasma compound levels in the rat aortic allograft study; assay type: in vivo; settings: Lewis, subcutaneous, after 90 days of dosing, read-out: trough plasma levels
Procedure: as §1, §2

CC(C)(Sc1cc(C(C)(C)C)c(O)c(C(C)(C)C)c1)Sc1cc(C(C)(C)C)c(OCCCC(=O)O)c(C(C)(C)C)c1 [Compound A, 4-[4-[[1-[[3,5-bis(1,1-dimethylethyl)-4-hydroxyphenyl]thio]-1-methylethyl]thio]-2,6-bis(1,1-dimethylethyl)phenoxy]butyric acid]
IM ratio and % LN compared to the vehicle group ([1]; 20 mg and 40/30/5 mg/kg/d doses, day 90): significantly lower | efficacy and gross toxicity ([1]; 20 mg/kg/d subcutaneously): efficacious without grossly discernable toxic side effects | adverse findings (body weight, skin) ([1]; 40 mg/kg/d subcutaneously, until the dose was reduced): failure to gain weight and skin irritation; also recorded: initially lost weight | inhibition of aortic neointimal growth ([1]; 10, 20 and 40/30/5 mg/kg/d subcutaneously, 90 days): dose-dependent inhibition | tolerability of treatment ([1]; 10 and 20 mg/kg/d subcutaneously, animals regained weight post surgery): well tolerated | percent inhibition of the % LN (percent luminal narrowing) ([1]; 40/30/5 mg/kg/d subcutaneously, day 90, compared to vehicle control): 52% | concentration at 90 days ([2]; 10 mg/kg/d subcutaneously): 10 µM | concentration at 90 days ([2]; 20 mg/kg/d subcutaneously): 18 µM | concentration at 90 days ([2]; 40/30/5 mg/kg/d subcutaneously): 28 µM
